One data set relates to HeLa cells (Golgi label). The experiment in a line: Photostability in sequential 3D spinning disk confocal imaging. The format is cell-based. The following applies: fixed cells. As to the method: The relative photostability of Cer-TCO/SiR-Tz to both BODIPY-Cer and the SiR labeled SNAP-tag Golgi protein Rab6 was compared. The latter is the product of reaction between Rab6-SNAP and a benzyl guanine derivative of SiR (SiR-BG) (Lukinavicius, et al., 2013, Nature Chem. 5:132-139) and thus contains the same near-IR dye as SiR-Tz (FIGS. 5A-5B). HeLa cells were treated with Cer-TCO/SiR-Tz or BODIPY-Cer, while Rab6-SNAP-expressing cells were treated with SiR-BG. The cells were then examined in sequential 3D images using spinning disk confocal microscopy; 3D visualization limited fluorescence fluctuations due to axial sample drift. In each case, 3D “stacks” of 22 optical sections were acquired in series up to 500 times in live or fixed cells (FIGS. 5A-5B). In live cells, even under optimal imaging conditions the BODIPY-Cer fluorescent signal decreased by 50% after fewer than 15 stacks. In striking contrast, the fluorescent signal of cells treated with 2 μM Cer-TCO followed by 2 μM SiR-Tz decreased by only 10% after more than 120 3D stacks had been acquired. Consistent with a lower density of Rab6-SNAP protein in the Golgi, the signal from Rab6-SNAP-SiR decayed at an intermediate rate, decreasing by 50% after about 50 3D stacks. […] After 500 3D stacks the fluorescent signal of Cer-SiR decreased 16% whereas that of Rab6-SNAP-SiR decreased by 84%. […]

Data set [1] deals with HeLa cells stably transfected to express GalNAcT2-GFP (Golgi). In words: Incubation with premixed/preassembled Cer-SiR (Golgi labeling). The following applies: approximately 2 μM Cer-SiR solution; three protocols A-C. It counts as cell-based. As to the method:
An approximately 2 μM solution of Cer-SiR was prepared as follows: Stock solutions in DMSO of SiR-Tz and Cer-TCO were added to a PBS buffer supplemented with 1% casein to achieve a final concentration of 2 μM for both components. The solution was thoroughly mixed and incubated for 15 min at room temperature. Before the solution was added to dishes containing cells, Pluronic F-127 was added (0.2% final concentration). The formation of Cer-SiR was confirmed by HPLC.
Protocol A: HeLa cells stably transfected to express GalNAcT2-GFP were cultured on 35 mm glass bottom dishes (Mattek), washed with DMEM (3×) and incubated with the Cer-SiR solution (prepared as described elsewhere herein) for 5 min at 37° C. The dish was washed with DMEM (3×) and incubated at 19.5° C. for 60 min, washed with DMEM (3×) and imaged.
Protocol B: Same as protocol A, but without the wash step before the incubation at 19.5° C.
Protocol C: HeLa cells stably transfected to express GalNAcT2-GFP were cultured on 35 mm glass bottom dishes (Mattek), washed with DMEM (3×) and incubated with the Cer-SiR solution described for 30 min at 4° C. The dish was washed with DMEM (3×) and incubated at 37° C. for 30 min, washed with DMEM (3×) and imaged. This protocol was similar to the protocol used for Golgi labeling with BODIPY-Cer.

Each structure is given as a SMILES string. “Also recorded” adds a separate entry of the source.

For `CCCCCCCCCCCCC/C=C/[C@@H](O)[C@H](CO)NC(=O)CCCCCNC(=O)OC1CCCC2=C(c3ccc(CNC(=O)c4ccc(C(=O)[O-])c(C5=C6C=CC(=[N+](C)C)C=C6[Si](C)(C)c6cc(N(C)C)ccc65)c4)cc3)NN=CC2CC1` (stereo partly drawn) [Cer-SiR, 4-((4-(7-(((6-(((2S,3R,E)-1,3-dihydroxyoctadec-4-en-2-yl)amino)-6-oxohexyl)carbamoyl)oxy)-2,4a,5,6,7,8,9,10-octahydrocycloocta[d]pyridazin-1-yl)benzyl)carbamoyl)-2-(7-(dimethylamino)-3-(dimethyliminio)-5,5-dimethyl-3,5-dihydrodibenzo[b,e]silin-10-yl)benzoate], in the data set with HeLa cells (Golgi label), the “Decrease of fluorescent signal after 500 3D stacks” value was determined as 16%. Further, the “Golgi labeling with preassembled Cer-SiR” value in data set [1] is recorded as “not suitable for Golgi labeling; also recorded: did not lead to Golgi labeling”.

These data come from US10087199B2, “Super-resolution imaging compositions and methods using same” (Yale University, priority 2014, dated 2018).
